Key:
[1] = test system: EGR1 and FOS mRNA; experiment: Serum-induced immediate early response gene expression in HCT-116 cells (qRT-PCR); type: cell-based; conditions: quiescent HCT-116 cells, 2 hours with 1 μM, then FBS time-course
Experimental: (B) SEL120-34A inhibits IFN-dependent phosphorylation of STAT1 S727. HCT-116 cells stimulated with IFNg for 4 h were treated with increasing doses of SEL120-34A, Flavopiridol (F) or vehicle DMSO (C) to determine changes in the phosphorylation of STAT1 S727 and Y701, as measured by WB. (*) unspecific band. (C) SEL120-34A inhibits serine phosphorylation of STAT1 S727 and STAT5 S726, whereas Ruxolitinib inhibits tyrosine phosphorylation of STAT1 Y701 and STAT5 Y694 in JAK2 V617F cells. SET-2 cells were treated with Ruxolitinib, SEL120-34A or vehicle DMSO (C) for 24 hours and protein levels of pS727, pY701 STAT1 and pS726, pY694 STAT5 were measured by WB. […]
[…]

[2] = test system: ME-1; experiment: Extended viability test (AlamarBlue); type: cell-based; conditions: extended viability assay

Cc1c(Br)c(Br)c2c3c1nc(N1CCNCC1)n3CCC2 [SEL120-34A]
inducible expression of IER genes EGR1 and FOS [1]: substantially repressed | GI50 [2]: 120 nM

Source: publication PMC5464911, “SEL120-34A is a novel CDK8 inhibitor active in AML cells with high levels of serine phosphorylation of STAT1 and STAT5 transactivation domains” (Oncotarget, 2017)
